This is an account of results in the OPERA property sets (Mansouri et al. 2018).

Molecules are shown by their SMILES.

In turn, `CC(C)N1C(=O)SC(=Cc2ccc([N+](=O)[O-])o2)C1=O` came in with a logP of 2.42.
For `C=C(C)C(=O)OC1CC2=CC(CC3(C)OC3C3OC(=O)C(=C)C13)OC2=O` (centres undefined), the logP was 0.69.
Next, `O=C(OOC(=O)c1ccccc1)c1ccccc1`: 3.46; `NC(=O)c1cc(Cl)ccc1NCCO`: 1.26.
The compound `O=C1NC(=O)c2cc(-c3ccccc3)ccc21` yielded a logP of 2.97.
`C=CCC(NC(=O)C(Cc1ccccc1)NS(=O)(=O)N1CCOCC1)C(=O)NC(COC(F)(F)C(=O)NCCN1CCOCC1)CC1CCCCC1` (centres undefined) showed a logP of 3.17.
`Nc1ncc(Cc2cccc(Cl)c2)c(N)n1` yielded a logP of 2.29.
`COc1c(Br)cc(Br)cc1Br`: the logP worked out at 4.48.
The compound `CCOC(=O)C(CC)(CC)C(=O)NC(N)=O` displayed a logP of 1.45.
In turn, `CCCOC(=O)CNC(=O)CCCCSc1ncnc2nc[nH]c12` registered a lipophilicity (logP) of 1.37.
In the case of `CC(=O)Nc1nc(N2CCN(C)CC2)c(Cl)nc1[N+](=O)[O-]` it was 0.5.
For the compound `c1ccc(C2CCNCC2)cc1`, the logP was 2.39.
Next, `Cc1cc2c(ccc3ccc(=O)oc32)o1`: 2.55.
In the case of `COc1ccc(C(O)(Cn2ccnc2)c2ccc(-c3ccncc3)cc2)cc1` (centres undefined) it was 3.55.
`NNC(=O)c1ccnc(I)c1` registered a logP of 0.52.
Consider `O=C(c1ccc(F)cc1F)c1ccc2n1CCC2C(=O)O` (centres undefined), for which the logP stood at 2.59.
On to `Cc1ccc2[nH]c(=O)nc(-c3ccccc3)c2c1`, for which the logP amounted to 2.32.
`OC(Cn1ccnc1)(c1ccc(-c2ccccn2)cc1)c1ccc(F)cc1F` (centres undefined) had a logP of 3.65.
`CC(C(=O)NCCO)n1ccnc1[N+](=O)[O-]` (centres undefined) yielded a logP of -1.16.
In the case of `Clc1ccc(-c2cccc(Cl)c2)cc1` it was 5.15.
The compound `Cc1cnc2n(c1=O)C(C)CCC2` (centres undefined) showed a logP of 0.82.
`Cc1ccc(O)c(CO)c1` gave a logP of 0.97.
Next, `O=C(CN1CCOCC1)NCc1ccccc1`: 0.67; `[N-]=[N+]=N[C@H]1C[C@H](n2ccc(N)nc2=O)O[C@@H]1CO`: -0.7; `Fc1ccc(F)c(F)c1`: 2.52.
In the case of `CN(C)CCCCN(Cc1ccc(C(C)(C)C)cc1)c1ccccc1` it was 5.53.
In turn, `Cc1cccc(C)c1NC(=O)CCCN` displayed a logP of 0.71.
In turn, `CCCCC(O)C(=O)O` (centres undefined) returned a logP of 0.81.
The compound `CNC(=C[N+](=O)[O-])NCCSCc1ccc(CN(C)C)o1` yielded a logP of 0.27.
The compound `CCCNCC(O)COc1ccc(-c2ncc(-c3cccs3)[nH]2)cc1` (centres undefined) displayed a logP of 2.84.
`CCOC(=O)C=COc1ccccc1Cl`: the logP came to 3.55.
`O=[N+]([O-])c1cn(CCN2CCOCC2)cn1` registered a logP of -0.38.
In the case of `CCOCCNCC(O)COc1ccc(-c2ncc(-c3cccs3)[nH]2)cc1` (centres undefined) it was 2.25; in that of `OC1(c2cc(Cl)ccc2Cl)CCCCC1n1cncn1` (centres undefined), 3.24; in that of `Cc1cc(Br)cc(C(=O)NC(C)C)c1O`, 4.19.
Next, `CCN(CC)CCOC(=O)/C=C/c1ccccc1`: 3.61.
The compound `Clc1cc(Cl)cc(-c2ccccc2)c1` had a logP of 5.41.
`CCNC(=O)NS(=O)(=O)c1ccc(Cl)cc1`: the logP is 1.79.
On to `CCc1ccc(CC(=O)O)cc1`, for which the logP worked out at 2.25.
Next, `CCCCCCCCCCC(=O)O`: 4.42; `CC(=O)OCC1OC(n2ccc(N)nc2=O)C(OC(C)=O)C1OC(C)=O` (centres undefined): -0.8.
`CCCCCCC(C)(C)c1cc(O)c2c(c1)OC(C)(C)[C@@H]1CC=C(CO)C[C@@H]21` yielded a logP of 7.44.
`Nc1cccc(I)c1` displayed a logP of 2.86.
In the case of `O=C(Cn1ccnc1[N+](=O)[O-])NCC(O)CO` (centres undefined) it was -1.85; in that of `CCS[C@@H]1O[C@H](CO)[C@H](O)[C@H](O)[C@H]1O`, -1.51; in that of `CCN(CC)C(=O)c1cccc(C)c1`, 2.18.
Compound `CCCc1ccc(O)cc1` came in with a logP of 3.2.
In turn, `COc1ccc(C(=O)OCC2OC(n3cnc4c(OC)ncnc43)C2OC(=O)c2ccc(OC)cc2)cc1` (centres undefined) came in with a logP of 3.65.
The compound `CCCCCCCCCCCCCCCCCC(=O)O` gave a logP of 8.23.
In the case of `O=C1C(Nc2ccccc2)=C(S(=O)(=O)c2ccccc2)C(=O)c2ccccc21` it was 3.38; in that of `CCOC(=O)C1=C(C)OC(=Cc2ccc(OC)cc2)C1=O`, 2.96; in that of `Cc1cccc(C)c1NC(=O)CCCC(C)N` (centres undefined), 1.41.
In the case of `Cc1ccccc1NC1=NCCN1` it was 1.28.
As to `c1ccc(-c2cn[nH]n2)cc1`, the logP stood at 1.91.
`CCN1CC(C(O)C(CC2CCCCC2)NC(=O)C(Cc2cnc[nH]2)NC(=O)C(CC(=O)N(C)CCOCOCCOC)Cc2ccccc2)OC1=O` (centres undefined) returned a logP of 2.21.
In the case of `Cc1cc(Br)cc(C)c1N=C1NCCN1` it was 2.8; in that of `Cc1ccc(S(=O)(=O)NC(=O)NN2CCCCCC2)cc1`, 2.69; in that of `C=C(C)OCc1ccccc1`, 2.41.
In turn, `CNC(=O)c1cc(Br)cc(C)c1O` had a logP of 3.51.
For `CC1OC(OC2CCC3(C)C(CCC4C3CC(O)C3(C)C(C5=CC(=O)OC5)CCC43O)C2)CC(O)C1O` (centres undefined), the logP was determined as 1.09.
In the case of `CC(CC(=O)O)CC(=O)c1ccc(-c2ccccc2)cc1` (centres undefined), the lipophilicity (logP) worked out at 3.82.
With `CCOC1OC(CO)C(O)C(O)C1O` (centres undefined), the logP was -2.28.
In the case of `CCN1CC(C(O)C(CC2CCCCC2)NC(=O)C(Cc2c[nH]cn2)NC(=O)C(Cc2ccc(OC)cc2)NC(=O)N2CC(OCOCCOC)C(OCOCCOC)C2)OC1=O` (centres undefined), the log partition coefficient (logP) was 1.67.
`CCCCCCCCOC(=O)c1cc(=O)[nH]c(=O)[nH]1` had a logP of 2.6.
The compound `CN(C)N=Nc1ccc(C(=O)O)cc1` displayed a logP of 2.33.
In the case of `CS(=O)CCn1ccnc1[N+](=O)[O-]` (centres undefined) it was -1.22.
Consider `CCCCCCCCC(=O)O`, for which the logP worked out at 3.42.
On to `[O-][n+]1ccc(NO)c2ccccc21`, for which the logP came to 0.
With `CCn1c(=O)[nH]c(=O)c2[nH]cnc21`, the logP is -0.11.
Next, `CCCCCC1Nc2cc(C(F)(F)F)c(S(N)(=O)=O)cc2S(=O)(=O)N1` (centres undefined): 2.66; `Nc1nc(-c2ccccn2)cc2ccccc12`: 2.74; `NNc1nncc2ccccc12`: 1.
Turning to `COCOC(=O)C1N2C(=O)C(N3C(=O)C(c4ccc(O)cc4)NC3(C)C)C2SC1(C)C` (centres undefined), the logP was 0.3.
Compound `CCC(C(=O)OCc1ccccc1)C(COC(=O)c1ccccc1)Cc1cncn1C` (centres undefined) showed a logP of 4.37.
In the case of `CCCC(=O)OCC(Cc1cncn1C)C(CC)C(=O)OCc1ccccc1` (centres undefined) it was 3.78; in that of `CC(=O)O[C@]1(C(=O)CO)CC[C@H]2[C@@H]3CCC4=CC(=O)CC[C@]4(C)[C@H]3[C@@H](O)C[C@@]21C`, 2.3; in that of `CCCCn1c(=O)[nH]c(=O)c2[nH]cnc21`, 0.84.
`c1ccc(-c2cnc3ccccc3n2)cc1`: the logP turned out to be 3.48.
`CCC(O)(C(N)=O)c1ccccc1` (centres undefined) displayed a logP of 1.2.
Take `CN1CC=C(c2cccs2)CC1`: the logP is 2.51.
Consider `CNC(=O)COc1cccc(OCC(O)CNC(C)C)c1` (centres undefined), for which the logP was 0.35.
As to `COc1cc(Br)c(Cc2cnc(N)nc2N)cc1OC`, the logP worked out at 1.64.
Regarding `CON=C(C(=O)N[C@@H]1C(=O)N2C(C(=O)O)=C(COC(N)=O)CS[C@H]12)c1ccco1`, the logP is -0.16.
With `C[C@H]1O[C@@H](O[C@H]2[C@@H](O)C[C@H](O[C@H]3[C@@H](O)C[C@H](O[C@H]4CC[C@@]5(C)[C@H](CC[C@@H]6[C@@H]5CC[C@]5(C)[C@@H](C7=CC(=O)OC7)CC[C@]65O)C4)O[C@@H]3C)O[C@@H]2C)C[C@H](O)[C@@H]1O`, the logP came to 1.85.
In the case of `CN(C)c1nc(N(C)C)nc(N(C)CCO)n1` it was 1.96; in that of `OCC1c2ccccc2-c2ccccc21`, 2.89; in that of `Brc1cccc(N=C2NCCN2)c1Br`, 2.16.
`O=C(c1ccc(F)cc1)c1ccc2n1CCC2C(=O)O` (centres undefined) returned a logP of 2.82.
Next, `COCc1ccc(C#N)cc1`: 1.23.
Next, `O=C1c2ccccc2C(=O)C1c1ccc(Br)cc1`: 3.76.
In the case of `CN(C)c1ccc2ccccc2n1` it was 2.81.
The compound `COc1c(OC)c(OC(C)=O)c2cc(NC(C)=O)ccc2c1OC(C)=O` came in with a logP of 2.
Next, `CC(=O)OCCN1C(=O)C(OC(C)=O)N=C(c2ccccc2)c2cc(Cl)ccc21` (centres undefined): 2.74; `Cc1ccc(CCN)cc1`: 1.83.
In turn, `CCN(CC)CCCN(C(=O)Cc1ccccc1)c1c(C)cccc1C` had a logP of 4.94.
For the compound `O=C(O)c1cccnc1`, the logP was determined as 0.36.
`c1ccc2c(c1)ccc1cc3c(ccc4ccccc43)cc12` displayed a logP of 6.75.
As for `Cc1cn([C@H]2C[C@H](O)[C@@H](CO)O2)c(=O)[nH]c1=O`, the logP was -0.93.
Compound `COc1cc2nc(N3CCN(C(=O)C(C)OC)CC3)nc(N)c2cc1OC` (centres undefined) came in with a log partition coefficient (logP) of 1.14.
For the compound `CNCCCN1c2ccccc2Sc2ccc(Cl)cc21`, the logP stood at 4.94.
As to `NC(=O)c1ccccc1OCc1ccc([N+](=O)[O-])cc1`, the logP was 1.73.
Turning to `CNC(=O)Oc1ccc(N(C)C)c(C)c1`, the logP is 1.9.
`CCN(CC)CC(=O)NCc1ccccc1` showed a logP of 2.14.
The compound `COCc1cnc(-c2ccc(OCC(O)CNCCc3ccc(OC)c(OC)c3)cc2)[nH]1` (centres undefined) had a logP of 1.71.
As for `CCCCCCCCCCCCCC(=O)O`, the logP stood at 6.11.
As to `OC(Cn1ccnc1)(c1ccc(-c2cccnc2)cc1)c1ccc(F)cc1F` (centres undefined), the logP amounted to 3.31.
On to `CC(=O)Oc1cccc(OC(C)=O)c1C(N)=O`, for which the logP is -0.62.
The compound `CCC1(CC)C(=O)NC(=O)N=C1OC(C)C` gave a logP of 1.86.
Regarding `CSc1cnc2ccccc2n1`, the logP was determined as 2.79.
For `CCCCCCCCCCOc1ccc(C(=O)O)cc1`, the lipophilicity (logP) amounted to 6.29.
In the case of `CCOC(=O)CNC(=O)CNC(=O)CNC(=O)CCCCSc1ncnc2nc[nH]c12` it was 0.21; in that of `COc1ccc(CC(C)N)cc1OC` (centres undefined), 1.2; in that of `CC(=O)OCC1SC(n2ccnc2[N+](=O)[O-])C(OC(C)=O)C(OC(C)=O)C1OC(C)=O` (centres undefined), 0.63.
For `C=C1C(=O)OC2C1C(OC(=O)C(C)=CC)CC1(CO1)C1C(OC(C)=O)C=C(C)C21O` (centres undefined), the logP stood at 0.76.

The term logP denotes a log measure of how a compound divides between an organic and an aqueous phase. The low end stands for a more hydrophilic compound, the high end for a more lipophilic compound.
